According to patent US10883936B2, “Analysis of viable and nonviable cells” (SageMedic Corporation, priority 2018, dated 2021):

Tests used:
[1] = tested on: ovarian cancer primary tumor cells; assay: Dynamic confocal fluorescent microscopy after adding quenching dye to cells pre-dyed with membrane-permeable dye (Example 2); type: cell-based; settings: for change of fluorescence intensity over time: 0-45 min after addition of quenching dye; for dyeing of the nonviable cells: by 45 min after addition of quenching dye
Description: In order to further examine the dyeing behavior and kinetics of the membrane-impermeable fluorescent quenching dye and the membrane-permeable fluorescent dye of Example 1 when mixed together, an additional experiment was performed on day 7 of culture as follows.
On day 7, 20 μL of the membrane-permeable fluorescent dye was added at 6× concentration to each well. The cells were incubated with dye at 37° C. for 1 hour. Confocal fluorescent microscopy was performed after incubation. About 20 μL of the membrane-impermeable fluorescent quenching dye was added directly to the same well on the stage at 6× concentration without disturbing the cells.
Dynamic confocal fluorescent microscopy images were taken of the cells immediately after addition of the membrane-impermeable fluorescent quenching dye (FIG. 2A, 2B), as well as at 5 min (FIG. 2C, 2D), 20 min (FIG. 2E, 2F), 30 min (FIG. 2G, 2H) and 45 min (FIG. 2I, 2J) after addition.

[2] = tested on: ovarian cancer primary tumor cells; assay: Confocal fluorescent microscopy of dyed primary tumor cells, dye combinations and addition sequences (Example 1); type: cell-based
Description: A 96 round bottom well plate was seeded with a single cell suspension of about 2,500 ovarian cancer primary tumor cells/20 μl/well at day 0. In each well, 80 μl of DMEM/2% alpha serum was added on top to the total volume of 100 μl/well. Dyes were prepared at 2-fold the desired final concentrations on the day of imaging. At day 3, 100 μL of dyeing mix was carefully added to each well to avoid disturbing the cells, to a final 1-fold concentration of dyes. Cells were incubated with dyes at 37° C. For this example, the dyes used were a membrane-permeable fluorescent dye (CYQUANT® GR, Thermo Fisher Scientific, Waltham, Mass.) and a membrane-impermeable fluorescent quenching dye (DRAQ7™, Thermo Fisher Scientific, Waltham, Mass.). The following dye combinations and sequences of dye addition were tested in triplicates, and similar results were seen among the triplicates. FIGS. 1A-1G show exemplary results of the dye combination and addition sequences, as follows.
FIG. 1A is a confocal fluorescent microscopy image of a sample prepared by incubation with the membrane-impermeable fluorescent quenching dye for 30 min followed by addition of the masking agent (Diammonium 5-[(E)-(4-acetamido-2-sulfonatophenyl)diazenyl]-6-amino-4-hydroxy-2-naphthalenesulfonate; CAS Reg. No. 302912-22-7, Thermo Fischer Scientific, Waltham, Mass.) and incubation for an additional 1 h.
FIG. 1B is a confocal fluorescent microscopy image of a sample prepared by incubation with the membrane-impermeable fluorescent quenching dye for 30 min.
FIG. 1C is a confocal fluorescent microscopy image of a sample prepared by incubation with the membrane-impermeable fluorescent quenching dye for 30 min, followed by addition of the membrane-permeable fluorescent dye and incubation for an additional 1 h.
FIG. 1D is a confocal fluorescent microscopy image of a sample prepared by incubation with the membrane-impermeable fluorescent quenching dye for 30 min, followed by addition of the membrane-permeable fluorescent dye and masking reagent and incubation for an additional 1 h.
FIG. 1E is a confocal fluorescent microscopy image of a sample prepared by incubation with the membrane-permeable fluorescent dye alone for 1 h.
FIG. 1F is a confocal fluorescent microscopy image of a sample prepared by incubation with the membrane-permeable fluorescent dye alone for 1 h, followed by addition of the membrane-impermeable fluorescent quenching dye and incubation for an additional 30 min.
FIG. 1G is a confocal fluorescent microscopy image of a sample prepared by incubation with the membrane-permeable fluorescent dye and masking reagent for 1 h, followed by addition of the membrane-impermeable fluorescent quenching dye and incubation for an additional 30 min.

[3] = FIG. 1C: quenching dye 30 min, then membrane-permeable dye, additional 1 h
[4] = FIG. 1D: quenching dye 30 min, then membrane-permeable dye and masking reagent, additional 1 h
[5] = FIG. 1F: membrane-permeable dye 1 h, then quenching dye, additional 30 min
[6] = FIG. 1G: membrane-permeable dye and masking reagent 1 h, then quenching dye, additional 30 min

Molecule | change of fluorescence intensity over time [1] | dyeing of the nonviable cells [1] | signal observed by confocal fluorescent microscopy [2, 3] | signal observed by confocal fluorescent microscopy [2, 4] | signal observed by confocal fluorescent microscopy ([2]; FIG. 1E: membrane-permeable fluorescent dye alone, 1 h, 37° C.) | signal observed by confocal fluorescent microscopy [2, 5] | signal observed by confocal fluorescent microscopy [2, 6] | cells dyed by the dye alone ([2]; dye alone) | time after addition of the dye at which the brightest images (fluorescence intensity) were acquired ([1]; day 7, FIG. 2I, 2J) [min] | time after addition at which green cells becoming red is visually noticeable ([1]; day 7, membrane-permeable dye 1 hour at 37° C., then quenching dye added) [min] | signal observed by confocal fluorescent microscopy ([2]; FIG. 1B: membrane-impermeable fluorescent quenching dye alone, 30 min, 37° C., day 3) | signal observed by confocal fluorescent microscopy ([2]; FIG. 1A: quenching dye 30 min, then masking agent, additional 1 h)
CYQUANT® GR [membrane-permeable fluorescent dye] | significant decrease over time | negligible | discrete green signals | discrete green signals were observed | discrete green signals were observed | discrete green signals | discrete green signals were observed | dyed both viable and nonviable cells | – | – | – | –
DRAQ7™ | increase over time | positive | discrete red signals were observed | – | – | discrete red signals were observed | – | – | 45 | 20 to 30 | discrete red signals were observed | –
CC(=O)Nc1ccc(/N=N/c2c(N)ccc3cc(S(=O)(=O)O)cc(O)c23)c(S(=O)(=O)O)c1.N.N [masking agent, Diammonium 5-[(E)-(4-acetamido-2-sulfonatophenyl)diazenyl]-6-amino-4-hydroxy-2-naphthalenesulfonate] | – | – | – | No red signal was observed | – | – | No red signal was observed | – | – | – | – | no signal was observed
